Two compounds from patent US7179801B2, “Cephem compounds” (Astellas Pharma Inc., priority 2001, dated 2007) can be followed below.

In brackets after ≈: the same amount, converted by molar mass.

This assay concerns Pseudomonas aeruginosa FP 2056. Description: In vitro antibacterial activity (MIC), two-fold agar-plate dilution method. Particulars: FP2056; test strain Pseudomonas aeruginosa FP 2056; heart infusion agar, 37° C. for 20 hours; read-out: MIC (minimal inhibitory concentration). The class given is cell-based. The procedure:
In vitro antibacterial activity was determined by the two-fold agar-plate dilution method as described below. One loopful of an overnight culture of each test strain in Trypticase-soy broth (10^6 viable cells per ml) was streaked-on heart infusion agar (HI-agar) containing graded concentrations of representative test compound, and the minimal inhibitory concentration (MIC) was expressed in μg/ml after incubation at 37° C. for 20 hours.

Take `Cn1c(N)c(CCCN)c[n+]1CC1=C(C(=O)[O-])N2C(=O)[C@@H](NC(=O)/C(=N\OC(C)(C)C(=O)O)c3nsc(N)n3)[C@H]2SC1` [Compound (a), 7β-[(Z)-2-(5-amino-1,2,4-thiadiazol-3-yl)-2-(1-carboxy-1-methylethoxyimino)acetamido]-3-[3-amino-4-(3-aminopropyl)-2-methyl-1-pyrazolio]methyl-3-cephem-4-carboxylate]: the MIC turned out to be 1 µg/mL (≈ 1.61 µM).

For `Cn1c(N)c(CCN)c[n+]1CC1=C(C(=O)[O-])N2C(=O)[C@@H](NC(=O)/C(=N\OC(C)(C)C(=O)O)c3nsc(N)n3)[C@H]2SC1` [Compound (b), 7β-[(Z)-2-(5-amino-1,2,4-thiadiazol-3-yl)-2-(1-carboxy-1-methylethoxyimino)acetamido]-3-[3-amino-4-(2-aminoethyl)-2-methyl-1-pyrazolio]methyl-3-cephem-4-carboxylate], the MIC is 0.5 µg/mL (≈ 0.821 µM).
